According to patent US20210330611A1, “THERAPY FOR NEUROLOGICAL DISEASES/DISORDERS” (priority 2020, published 2021):
Where a name gives a salt, the structure may show the parent alone. Read-outs that look alike come from different tables or passages of the source.

Tests used:
[1] = system: primary rat microglia; experiment: Cell toxicity (dead cells, size <150 μm2) in coated fibrin (cFib) assay; settings: primary microglia HTS;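 note: share of dead cells sized under 150 µm2 at 10 µM in fibrin-stimulated microglia HTS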
[2] = system: LPS-induced microglia activation; experiment: Image-based assay of LPS-induced microglia activation (HTS and dose response); type: cell-based, rat; settings: for inhibition at 10 µM: Rattus norvegicus, Microglia, read-out: LPS % inhibition
[3] = system: fibrin- and LPS-induced microglia activation; experiment: cells; type: cell-based, rat
[4] = system: primary rat microglia
[5] = system: fibrin-induced microglia activation; experiment: Image-based assay of fibrin-induced microglia activation (HTS and dose response); type: cell-based, rat; settings: primary microglia HTS, fibrin stimulation; for inhibition at 10 µM: Rattus norvegicus, Microglia, read-out: Fibrin % inhibition
[6] = fibrin stimulation, cell size <150 μm2 as marker of toxicity
[7] = classification by fibrin and LPS inhibition in HTS
[8] = cell size >800 μm2 as marker of activation
[9] = fibrin assay, dead cells (size <150 μm2), compounds at 10 μM
[10] = primary microglia HTS, LPS stimulation, compounds at 10 μM
[11] = classification by fibrin and LPS inhibition, HTS at 10 μM
[12] = fibrin assay, dead cells (size <150 μm2)
[13] = quadrant by fibrin and LPS inhibition, HTS at 10 μM

| Compound | inhibition at 10 µM [2, 10] | LPS % cell toxicity ([4]; rat) | inhibition at 10 µM ([5]; compounds at 10 μM) | Fibrin % cell toxicity [1, 12] | Quadrant (FIG. 5b) [3, 13] | other results |
| --- | --- | --- | --- | --- | --- | --- |
| CCCC(C(=O)OCCN(CC)CC)(c1ccccc1)c1ccccc1.Cl |  |  |  |  |  | Fibrin % cell toxicity [1, 6]: 0%; LPS % inhibition [2]: 5%; Quadrant (FIG. 5b) [3, 7]: Q4; LPS % cell toxicity [4]: 0%; Fibrin % inhibition [5, 8]: −10% |
| CC1CC(OC(=O)C(O)c2ccccc2)CC(C)(C)C1 (centres unmarked) [Cyclandelate] | 4% | 0% | -57% |  |  | Fibrin % cell toxicity [1, 9]: 0%; Quadrant (FIG. 5b) [3, 11]: Q4 |
| C[C@@H](CO)NC(=O)[C@@H]1C=C2c3cccc4[nH]cc(c34)C[C@H]2N(C)C1 [Ergonovine Maleate] |  | 0% |  |  |  | Fibrin % cell toxicity [1, 9]: 1%; LPS % inhibition ([2]; primary microglia HTS, LPS stimulation, compounds at 10 μM, 10 µM): 7%; Quadrant (FIG. 5b) [3, 11]: Q4; Fibrin % inhibition ([5]; compounds at 10 μM, 10 µM): 9% |
| CCC(=O)OCC(=O)[C@@]1(OC(=O)CC)[C@@H](C)C[C@H]2[C@@H]3CCC4=CC(=O)C=C[C@]4(C)[C@@]3(Cl)[C@@H](O)C[C@@]21C [Beclomethasone Dipropionate] | 28% | 1% | 7% | 1% | Q4 |  |
| C#C[C@]1(O)CC[C@H]2[C@@H]3CCc4cc(OC5CCCC5)ccc4[C@H]3CC[C@@]21C [Quinestrol] |  | 0% |  |  |  | Fibrin % cell toxicity [1, 6]: 0%; inhibition at 10 µM ([2]; 48 h): 24%; Quadrant (FIG. 5b) [3, 7]: Q4; inhibition at 10 µM [5, 8]: 15% |
| NC(=O)c1ccc([N+](=O)[O-])cc1Cl [Aklomide] | -2% | 0% | -18% | 0% | Q4 |  |
| NCc1cccnc1 [Picolamine] |  | 0% |  |  |  | Fibrin % cell toxicity [1, 6]: 1%; inhibition at 10 µM ([2]; 48 h): 4%; Quadrant (FIG. 5b) [3, 7]: Q4; inhibition at 10 µM [5, 8]: -1% |
| CCOC(=O)[C@H](CCc1ccccc1)N[C@@H](C)C(=O)N1[C@H](C(=O)O)C[C@@H]2CCC[C@@H]21 [Ramipril] |  | 0% |  |  |  | Fibrin % cell toxicity [1, 6]: 0%; inhibition at 10 µM ([2]; 48 h): 16%; Quadrant (FIG. 5b) [3, 7]: Q4; inhibition at 10 µM [5, 8]: 8% |
| N#C[C@@H]1C[C@@H]2C[C@@H]2N1C(=O)[C@@H](N)C12CC3CC(CC(O)(C3)C1)C2 [Saxagliptin] |  | 0% |  |  |  | Fibrin % cell toxicity [1, 6]: 1%; inhibition at 10 µM ([2]; 48 h): 38%; Quadrant (FIG. 5b) [3, 7]: Q4; inhibition at 10 µM [5, 8]: 34% |
| CN1CCCC(n2nc(Cc3ccc(Cl)cc3)c3ccccc3c2=O)CC1 (centres unmarked) [Azelastine, Azelastine Hydrochloride] |  |  |  | 0% | Q4 | LPS % inhibition [2, 10]: 11%; LPS % cell toxicity [4]: 0%; Fibrin % inhibition ([5]; compounds at 10 μM): 5% |
| OC(CCN1CCCC1)(c1ccccc1)C1CCCCC1 (centres unmarked) [Procyclidine] |  | 1% |  |  |  | Fibrin % cell toxicity [1, 6]: 1%; inhibition at 10 µM ([2]; 48 h): 26%; Quadrant (FIG. 5b) [3, 7]: Q4; inhibition at 10 µM [5, 8]: 0% |
| Br.CN1[C@H]2C[C@H](OC(=O)[C@H](CO)c3ccccc3)C[C@@H]1[C@@H](O)C2 [Anisodamine Hydrobromide] |  |  |  | 1% | Q4 | LPS % inhibition [2, 10]: 4%; LPS % cell toxicity [4]: 0%; Fibrin % inhibition ([5]; compounds at 10 μM): −41% |
| CC1(C)S[C@@H]2[C@H](NC(=O)[C@H](N)c3ccccc3)C(=O)N2[C@H]1C(=O)O [Ampicillin] | 15% | 0% | 1% | 1% | Q4 |  |
| CC1(C)OC(=O)NC1=O [Dimethadione] | 14% | 0% | -13% |  |  | Fibrin % cell toxicity [1, 9]: 1%; Quadrant (FIG. 5b) [3, 11]: Q4 |
| NS(=O)(=O)c1cc2c(cc1C(F)(F)F)NC(Cc1ccccc1)NS2(=O)=O (centres unmarked) [Bendrofumethiazide, Bendroflumethiazide] |  |  |  | 1% | Q4 | LPS % inhibition [2, 10]: 12%; LPS % cell toxicity [4]: 1%; Fibrin % inhibition ([5]; compounds at 10 μM): −15% |
| COc1ccc(-c2cc(C(F)F)nn2-c2ccc(S(N)(=O)=O)cc2)cc1F [Deracoxib] | 8% | 0% | -34% |  |  | Fibrin % cell toxicity [1, 9]: 0%; Quadrant (FIG. 5b) [3, 11]: Q4 |
| CCC(=O)O[C@H]1[C@H](O[C@@H]2[C@@H](C)[C@H](O[C@H]3C[C@@](C)(OC)[C@@H](O)[C@H](C)O3)[C@@H](C)C(=O)O[C@H](CC)[C@@](C)(O)[C@H](O)[C@@H](C)C(=O)[C@H](C)C[C@@]2(C)O)O[C@H](C)C[C@@H]1N(C)C [Erythromycin Propionate] | 27% | 0% | 23% |  |  | Fibrin % cell toxicity [1, 9]: 1%; Quadrant (FIG. 5b) [3, 11]: Q4 |

| Compound | inhibition at 10 µM [2, 10] | LPS % cell toxicity ([4]; rat) | inhibition at 10 µM ([5]; compounds at 10 μM) | Fibrin % cell toxicity [1, 12] | Quadrant (FIG. 5b) [3, 13] | other results |
| --- | --- | --- | --- | --- | --- | --- |
| Arsenic Trioxide |  |  |  | 1% | Q4 | LPS % inhibition [2, 10]: 14%; LPS % cell toxicity [4]: 0%; Fibrin % inhibition ([5]; compounds at 10 μM): 14% |
| C=C(NC(=O)C(=C)NC(=O)c1csc(C2=N[C@@H]3c4csc(n4)[C@H]4NC(=O)c5csc(n5)[C@H]([C@](C)(O)[C@@H](C)O)NC(=O)[C@H]5CSC(=N5)/C(=C/C)NC(=O)[C@H]([C@@H](C)O)NC(=O)c5csc(n5)[C@]3(CC2)NC(=O)[C@H](C)NC(=O)C(=C)NC(=O)[C@H](C)NC(=O)[C@H]([C@@H](C)CC)N[C@@H]2C=Cc3c([C@H](C)O)cc(nc3[C@H]2O)C(=O)O[C@@H]4C)n1)C(N)=O [Thiostrepton] | 65% | 1% | 109% | 64% | Q2 |  |
| O=C1C(O)=C([C@H]2CC[C@H](c3ccc(Cl)cc3)CC2)C(=O)c2ccccc21 [Atovaquone] | 13% | 0% | -15% | 0% | Q4 |  |
| CC(=O)OC1CN2CCC1CC2.Cl (centres unmarked) [Aceclidine Hydrochloride, Aceclidine] |  |  |  | 1% | Q4 | LPS % inhibition [2, 10]: 0%; LPS % cell toxicity [4]: 0%; Fibrin % inhibition ([5]; compounds at 10 μM): 2% |
| CCc1cn([C@H]2C[C@H](O)[C@@H](CO)O2)c(=O)[nH]c1=O [Edoxudine] | 1% | 0% | -10% |  |  | Fibrin % cell toxicity [1, 9]: 0%; Quadrant (FIG. 5b) [3, 11]: Q4 |
| NC(=O)C[S@@+]([O-])C(c1ccccc1)c1ccccc1 [Armodafinil] | 19% | 1% | -10% | 0% | Q4 |  |
| CC(CC(C(N)=O)(c1ccccc1)c1ccccc1)N(C)C (centres unmarked) [Aminopentamide Sulfate] | 12% | 0% | 3% | 1% | Q4 |  |
| CN1C(C(=O)Nc2ccccn2)=C(O)c2ccccc2S1(=O)=O [Piroxicam] |  | 0% |  |  |  | Fibrin % cell toxicity [1, 6]: 1%; inhibition at 10 µM ([2]; 48 h): 19%; Quadrant (FIG. 5b) [3, 7]: Q4; inhibition at 10 µM [5, 8]: 4% |
| Cc1cnc(C(=O)O)c[n+]1[O-] [Acipimox] | 20% | 0% | -11% | 1% | Q4 |  |
| C=CCOC(Cn1ccnc1)c1ccc(Cl)cc1Cl (centres unmarked) [Enilconazole] | 15% | 1% | 24% |  |  | Fibrin % cell toxicity [1, 9]: 1%; Quadrant (FIG. 5b) [3, 11]: Q4 |
| O=c1cc[nH]c(=S)[nH]1 [2-thiouracil] | 7% | 0% | -15% | 1% | Q4 |  |
| Nc1nccs1 [Aminothiazole] | 17% | 1% | -31% | 1% | Q4 |  |
| O=C(/C=C/C=C/c1ccc2c(c1)OCO2)N1CCCCC1 [Piperine] |  | 0% |  |  |  | Fibrin % cell toxicity [1, 6]: 1%; inhibition at 10 µM ([2]; 48 h): 10%; Quadrant (FIG. 5b) [3, 7]: Q4; inhibition at 10 µM [5, 8]: -13% |
| CCN1CC(CCN2CCOCC2)C(c2ccccc2)(c2ccccc2)C1=O (centres unmarked) [Doxapram Hydrochloride] | 9% | 0% | -18% |  |  | Fibrin % cell toxicity [1, 9]: 0%; Quadrant (FIG. 5b) [3, 11]: Q4 |
| CC[N+](C)(C)c1cccc(O)c1 [Edrophonium] | -2% | 0% | -9% |  |  | Fibrin % cell toxicity [1, 9]: 1%; Quadrant (FIG. 5b) [3, 11]: Q4 |
| CC(=O)NC(CCC(N)=O)C(=O)O (centres unmarked) [Aceglutamide] | 20% | 0% | 36% | 1% | Q4 |  |
| C=CCN=C=S [Allylisothiocyanate] | 18% | 0% | 11% | 1% | Q4 |  |
